The subject of one series is hNIS mRNA. The experiment in a line: hNIS mRNA re-expression by RT-PCR in treated human thyroid cell lines. In kind it is cell-based. To be noted: for hNIS mRNA expression despite treatment: MRO87, WRO82 and KAT-7 cell lines. How it is done: (§1) Cell lines, for evaluation of iodide-uptake and hNIS expression, were grown in phenol-red-free RPMI 1640 with 5% fetal bovine serum (FBS), 100 nM sodium selenite and 0.1 nM bovine TSH (basal medium) (20). They were plated at a density of 3–5×10^4 cells/9.4 cm^2, in triplicate in basal medium, and grown for 2–3 days at 37° C. in 5% CO2. They were treated with dimethylsulfoxide (DMSO, 25 μM daily for 3 days), sodium butyrate (0.5 or 1.0 mM), phenylacetate (pH 7.0, 5 or 10 mM) or 5-azacytidine (0.5 or 1.0 μM, in 25 μM DMSO, daily for 3 days) until control cells were 80% confluent (3–4 days), then changed to fresh basal medium and grown for an additional 24 hrs.
(§2) Total RNA and genomic DNA from: normal human thyroid, thyroid tumors, and cell lines (treated with agents described above), were isolated by the acid-guanidinium-phenol-chloroform method (21). All surgical samples were snap-frozen and stored at −80° C. until processed by homogenization in Trizol reagent (Life Technologies, Gaithersburg, Md.) while still frozen. Complementary DNA (cDNA) was synthesized from 1.0 μg of total RNA using MMLV reverse transcriptase (RT) with random-hexamer primers (Clontech, Palo Alto, Calif.). Each 50 μL polymerase chain reaction (PCR) vessel contained: 60 mM Tris HCl, pH 9.0, 15 mM ammonium sulfate, 3.5 mM MgCl2 (1.5 mM for hTTF-1), 250 μM dNTPs (Boehringer-Mannheim, Indianapolis, Ind.), 0.2 μM each primer pair, 1 U AmpliTaq DNA polymerase (Perkin-Elmer, Norwalk, Conn.), 0.2 μg TaqStart Antibody (Clontech) and 3% cDNA. β-actin amplification (primers, Stratagene, La Jolla, Calif.) confirmed cDNA integrity, purity, and template equivalence for semiquantification. PCR primers (upstream 5′ to 3′/downstream 5′ to 3′, in all cases) used for amplification were, for hNIS (5), CTGCCCCAGACCAGTACAT GCC (SEQ ID NO. 1)/[…] (SEQ ID NO. 2) (to amplify a coding region spanning four introns (4) yielding a 303 bp product from cDNA) and for Pax-8, […] (SEQ ID NO. 3)/[…] (SEQ ID NO. 4)((22) to amplify a 329 bp product). Amplification conditions for hNIS and Pax-8 were: denaturation (95° C.×5 min); 40 cycles of 20 sec at 95° C. and 60 sec at 68° C.; followed by extension at 72° C. for 3 min. The hTTF-1 product was amplified with intron spanning primers, […] (SEQ ID NO. 5)/[…] (SEQ ID NO. 6), which amplify a 263 bp fragment. The conditions were: 95° C. for 5 min; 45 cycles of 95° C. for 20 sec, 60° C. for 60 sec, and 72° C. for 30 sec; followed by extension at 72° C. for 3 min. The RT-PCR products were resolved on 2% agarose gels and visualized by ethidium bromide staining.

For a further series, the system named is Pax-8 mRNA. Nature of the series: Pax-8 mRNA expression by RT-PCR in treated cell lines. In kind it is cell-based, human. As to the method: as §1, §2
The test system of series [1] is TTF-1 expression and thyroglobulin promoter activity. Particulars: transformed rat thyroid cell line (activated RAS oncogene); cited from earlier work.
A further series deals with KAT-10 cells. Nature of the series: Lethality of culture additive in cell culture. In kind it is cell-based, human. Particulars: AzaC high, 1.0 μM. As to the method: as §1
Where [2] appears, read: KAK-1, high: AzaC 1.0 μM, NaB 1.0 mM, PhAc 10 mM.
The mark [3] stands for this setting: KAK-1, low: AzaC 0.5 μM, NaB 0.5 mM, PhAc 5.0 mM.
[4] abbreviates: KAT-5, high: AzaC 1.0 μM, NaB 1.0 mM, PhAc 10 mM.
Setting [5] is: KAT-5, low: AzaC 0.5 μM, NaB 0.5 mM, PhAc 5.0 mM.
[6] abbreviates: KAT-10, low: AzaC 0.5 μM, NaB 0.5 mM, PhAc 5.0 mM.
[7] abbreviates: NPA'87, high: AzaC 1.0 μM, NaB 1.0 mM, PhAc 10 mM.
[8] abbreviates: NPA'87, low: AzaC 0.5 μM, NaB 0.5 mM, PhAc 5.0 mM.
[9] abbreviates: NPA'87, high: AzaC 1.0 μM, NaB 1.0 mM.

Each structure is given as a SMILES string.

On to `CCCC(=O)[O-].[Na+]` [NaB, sodium butyrate], for which the “hNIS mRNA” value is “−” in the series on hNIS mRNA (setting [2]); “−” in the series on hNIS mRNA (setting [3]); “−” with hNIS mRNA (setting [4]); “−” with hNIS mRNA (setting [5]); “+” in the series with hNIS mRNA (KAT-10, high: NaB 1.0 mM, PhAc 10 mM); “−” in the series on hNIS mRNA (setting [6]). The “hNIS mRNA” value is “+” in the series on hNIS mRNA (setting [7]) and “−” with hNIS mRNA (setting [8]). In the series with hNIS mRNA, the “hNIS mRNA expression despite treatment” value is reported as “failed to express hNIS mRNA”. The “re-expression of hNIS mRNA” value in the series with hNIS mRNA (NPA'87 and KAT-10) was “re-expression of hNIS mRNA”. Further, the “Pax-8 mRNA” value with Pax-8 mRNA (KAT-10, high: NaB 1.0 mM) was “+”; in the series with Pax-8 mRNA (setting [9]) it was “+”.

On to `Nc1ncn([C@@H]2O[C@H](CO)[C@@H](O)[C@H]2O)c(=O)n1` [AzaC, 5-azacytidine], for which the TTF-1 expression entry in series [1] is listed as “restored”. Further, the thyroglobulin promoter activity entry in series [1] was “restored”. In addition, in the series with KAT-10 cells, the “Lethality of additive concentration for the cell line” value is “Lethal additive concentration for this cell line”. Besides, the “hNIS mRNA” value is listed as “+” in the series on hNIS mRNA (setting [2]); “+” with hNIS mRNA (setting [3]); “+” with hNIS mRNA (setting [4]); “−” with hNIS mRNA (setting [5]); “+” in the series on hNIS mRNA (setting [6]); “+” in the series with hNIS mRNA (setting [7]). Moreover, in the series on hNIS mRNA (setting [8]), the “hNIS mRNA” value was “−”. The “re-expression of hNIS mRNA, comparison of the two concentrations” value in the series on hNIS mRNA (KAK-1 cells, 0.5 μM vs 1.0 μM 5-azacytidine) is recorded as “comparable”. For the same compound, the “hNIS mRNA expression despite treatment” value in the series with hNIS mRNA is on record as “failed to express hNIS mRNA”. Also, the “Pax-8 mRNA” value with Pax-8 mRNA (KAK-1, high: AzaC 1.0 μM) is on record as “+”; in the series on Pax-8 mRNA (KAK-1, low: AzaC 0.5 μM) it was “+”; in the series on Pax-8 mRNA (KAT-5, high: AzaC 1.0 μM, PhAc 10 mM), “+”; in the series on Pax-8 mRNA (KAT-10, low: AzaC 0.5 μM) it was “+”; in the series on Pax-8 mRNA (setting [9]) it was “+”.
